# According to patent US20070049564A1 (Wyeth, priority 2005, published 2007):
# Read-outs that look alike come from different tables or passages of the source.
# What was measured:
# E. coli GC 2231 = test: MIC, broth microdilution; details: Escherichia coli, GC2231, E. coli GC 2231
# E. coli GC 2232 = test: MIC, broth microdilution; details: Escherichia coli, GC2232, E. coli GC 2232
# E. coli GC 2272 = test: MIC, broth microdilution; details: Escherichia coli, GC2272, E. coli GC 2272
# E. coli GC 4560 = test: MIC, broth microdilution; details: Escherichia coli, GC4560, E. coli GC 4560
# E. coli GC 6465 = test: MIC, broth microdilution; details: Escherichia coli, GC6465, E. coli GC 6465
# E. coli GC 3226 = test: MIC, broth microdilution; details: Escherichia coli, GC3226, E. coli GC 3226
# E. coli GC 2203 = test: MIC, broth microdilution; details: Escherichia coli, GC2203, E. coli GC 2203
# S. typhimurium GC 2172 = test: MIC, broth microdilution; details: Salmonella enterica, TYPHIMURIUM, S. typhimurium GC 2172
# S. aureus GC 6466 = test: MIC, broth microdilution; details: Staphylococcus aureus, GC6466, S. aureus GC 6466
# S. aureus GC 6467 = test: MIC, broth microdilution; details: Staphylococcus aureus, GC6467, S. aureus GC 6467
# S. aureus GC 4536 = test: MIC, broth microdilution; details: Staphylococcus aureus, GC4536, S. aureus GC 4536
# S. aureus GC 6469 = test: MIC, broth microdilution; details: Staphylococcus aureus, GC6469, S. aureus GC 6469
# E. faecalis GC 4555 = test: MIC, broth microdilution; details: Enterococcus faecalis, GC4555, E. faecalis GC 4555
# E. faecalis GC 2265 = test: MIC, broth microdilution; details: Enterococcus faecalis, GC2265, E. faecalis GC 2265
# E. faecalis GC 2267 = test: MIC, broth microdilution; details: Enterococcus faecalis, GC2267, E. faecalis GC 2267
# E. faecium GC 2243 = test: MIC, broth microdilution; details: Enterococcus faecium, GC2243, E. faecium GC 2243
# S. pneumoniae* GC 4465 = test: MIC, broth microdilution; details: Streptococcus pneumoniae, S. pneumoniae* GC 4465
# S. agalactiae GC 4564 = test: MIC, broth microdilution; details: Streptococcus agalactiae, GC4564, S. agalactiae GC 4564
# E. coli = test: Range of MIC for E. coli strains; details: Escherichia coli
# Staph. = test: Range of MIC for Staph. strains, including MRSA; details: Staphylococcus aureus, MRSA
# Description: Antimicrobial susceptibility testing. The in vitro activities of the antibiotics are determined by the broth microdilution method as recommended by the National Committee for Clinical Laboratory Standards (NCCLS) (1). Mueller-Hinton II broth (MHBII)(BBL Cockeysville, Md.) is the medium employed in the testing procedures. Microtiter plates containing serial dilutions of each antimicrobial agent are inoculated with each organism to yield the appropriate density (10^5 CFU/ml) in a 100 μl final volume. The plates are incubated for 18-22 hours at 35° C. in ambient air.
# Representative compounds were first incubated in mouse serum for an hour prior to the in vitro testing against a panel of selected gram-positive and gram-negative bacteria strains. All compounds were also pre-incubated in water for an hour prior to testing as control. Representative compounds of Formula I were incubated in human serum prior to MIC determination.
# [1] = 20 h, read-out: Range of MIC, E. coli (Mouse Serum)
# [2] = read-out: Range of MIC, E. coli (Water)
# [3] = read-out: Range of MIC, Staph (Mouse Serum)
# [4] = read-out: Range of MIC, Staph (Water)
structure (smiles),measurement,setting,value
"CCCCN(CC(=O)Nc1cc(N(C)C)c2c(c1O)C(=O)C1=C(O)[C@]3(O)C(=O)C(C(N)=O)=C(O)[C@@H](N(C)C)C3CC1C2)C(=O)OCOC(=O)C(C)C (stereo partly drawn) [Example 1, ({[(2-{[(7S,10aS)-9-(aminocarbonyl)-4,7-bis(dimethylamino)-1,8,10a,11-tetrahydroxy-10,12-dioxo-5,5a,6,6a,7,10,10a,12-octahydrotetracen-2-yl]amino}-2-oxoethyl)(butyl)amino]carbonyl}oxy)methyl 2-methylpropanoate]",MIC,E. coli GC 2231; Mouse Serum pre-incubation,1 µg/mL
same,MIC,E. coli GC 2231; Water pre-incubation,64 µg/mL
same,MIC,E. coli GC 2232; Mouse Serum pre-incubation,0.5 µg/mL
same,MIC,E. coli GC 2232; Water pre-incubation,16 µg/mL
same,MIC,E. coli GC 2272; Mouse Serum pre-incubation,1 µg/mL
same,MIC,E. coli GC 2272; Water pre-incubation,16 µg/mL
same,MIC,E. coli GC 4560; Mouse Serum pre-incubation,0.5 µg/mL
same,MIC,E. coli GC 4560; Water pre-incubation,2 µg/mL
same,MIC,E. coli GC 6465; Mouse Serum pre-incubation,8 µg/mL
same,MIC,E. coli GC 6465; Water pre-incubation,> 64 µg/mL
same,MIC,E. coli GC 3226; Mouse Serum pre-incubation,1 µg/mL
same,MIC,E. coli GC 3226; Water pre-incubation,32 µg/mL
same,MIC,E. coli GC 2203; Mouse Serum pre-incubation,0.5 µg/mL
same,MIC,E. coli GC 2203; Water pre-incubation,16 µg/mL
same,MIC,S. typhimurium GC 2172; Mouse Serum pre-incubation,4 µg/mL
same,MIC,S. typhimurium GC 2172; Water pre-incubation,> 64 µg/mL
same,MIC,S. aureus GC 6466; Mouse Serum pre-incubation,1 µg/mL
same,MIC,S. aureus GC 6466; Water pre-incubation,1 µg/mL
same,MIC,S. aureus GC 6467; Mouse Serum pre-incubation,4 µg/mL
same,MIC,S. aureus GC 6467; Water pre-incubation,4 µg/mL
same,MIC,S. aureus GC 4536; Mouse Serum pre-incubation,2 µg/mL
same,MIC,S. aureus GC 4536; Water pre-incubation,4 µg/mL
same,MIC,S. aureus GC 6469; Mouse Serum pre-incubation,2 µg/mL
same,MIC,S. aureus GC 6469; Water pre-incubation,8 µg/mL
same,MIC,E. faecalis GC 4555; Mouse Serum pre-incubation,1 µg/mL
same,MIC,E. faecalis GC 4555; Water pre-incubation,4 µg/mL
same,MIC,E. faecalis GC 2265; Mouse Serum pre-incubation,1 µg/mL
same,MIC,E. faecalis GC 2265; Water pre-incubation,4 µg/mL
same,MIC,E. faecalis GC 2267; Mouse Serum pre-incubation,2 µg/mL
same,MIC,E. faecalis GC 2267; Water pre-incubation,8 µg/mL
same,MIC,E. faecium GC 2243; Mouse Serum pre-incubation,1 µg/mL
same,MIC,E. faecium GC 2243; Water pre-incubation,2 µg/mL
same,MIC,S. pneumoniae* GC 4465; Mouse Serum pre-incubation,0.5 µg/mL
same,MIC,S. pneumoniae* GC 4465; Water pre-incubation,0.25 µg/mL
same,MIC,S. agalactiae GC 4564; Mouse Serum pre-incubation,0.5 µg/mL
same,MIC,S. agalactiae GC 4564; Water pre-incubation,1 µg/mL
same,MIC,E. coli; [1],0.5 to 1 µg/mL
same,MIC,"E. coli; read-out: Minimum inhibitory concentration (MIC), E. coli (mouse serum)",0.5 to 1 µg/mL
same,MIC,"E. coli; read-out: Minimum inhibitory concentration (MIC), E. coli (water)",16 to 64 µg/mL
same,MIC,E. coli; [2],16 to 64 µg/mL
same,MIC,"Staph.; read-out: Minimum inhibitory concentration (MIC), Staph. (mouse serum)",1 to 4 µg/mL
same,MIC,"Staph.; read-out: Minimum inhibitory concentration (MIC), Staph. (water)",1 to 8 µg/mL
same,MIC,Staph.; [3],1 to 4 µg/mL
same,MIC,Staph.; [4],1 to 8 µg/mL
"CCCN(CC(=O)Nc1cc(N(C)C)c2c(c1O)C(=O)C1=C(O)[C@]3(O)C(=O)C(C(N)=O)=C(O)[C@@H](N(C)C)[C@@H]3C[C@@H]1C2)C(=O)OCOC(=O)c1ccc(OC)cc1 [Example 6, ({[(2-{[(5aR,6aS,7S,10aS)-9-(aminocarbonyl)-4,7-bis(dimethylamino)-1,8,10a,11-tetrahydroxy-10,12-dioxo-5,5a,6,6a,7,10,10a,12-octahydrotetracen-2-yl]amino}-2-oxoethyl)(propyl)amino]carbonyl}oxy)methyl 4-methoxybenzoate]",MIC,E. coli GC 2231; Mouse Serum pre-incubation,2 µg/mL
same,MIC,E. coli GC 2231; Water pre-incubation,64 µg/mL
same,MIC,E. coli GC 2232; Mouse Serum pre-incubation,2 µg/mL
same,MIC,E. coli GC 2232; Water pre-incubation,32 µg/mL
same,MIC,E. coli GC 2272; Mouse Serum pre-incubation,1 µg/mL
same,MIC,E. coli GC 2272; Water pre-incubation,16 µg/mL
same,MIC,E. coli GC 4560; Mouse Serum pre-incubation,0.25 µg/mL
same,MIC,E. coli GC 4560; Water pre-incubation,2 µg/mL
same,MIC,E. coli GC 6465; Mouse Serum pre-incubation,4 µg/mL
same,MIC,E. coli GC 6465; Water pre-incubation,> 64 µg/mL
same,MIC,E. coli GC 3226; Mouse Serum pre-incubation,2 µg/mL
same,MIC,E. coli GC 3226; Water pre-incubation,16 µg/mL
same,MIC,E. coli GC 2203; Mouse Serum pre-incubation,2 µg/mL
same,MIC,E. coli GC 2203; Water pre-incubation,16 µg/mL
same,MIC,S. typhimurium GC 2172; Mouse Serum pre-incubation,8 µg/mL
same,MIC,S. typhimurium GC 2172; Water pre-incubation,> 64 µg/mL
same,MIC,S. aureus GC 6466; Mouse Serum pre-incubation,0.25 µg/mL
same,MIC,S. aureus GC 6466; Water pre-incubation,1 µg/mL
same,MIC,S. aureus GC 6467; Mouse Serum pre-incubation,2 µg/mL
same,MIC,S. aureus GC 6467; Water pre-incubation,4 µg/mL
same,MIC,S. aureus GC 4536; Mouse Serum pre-incubation,0.5 µg/mL
same,MIC,S. aureus GC 4536; Water pre-incubation,2 µg/mL
same,MIC,S. aureus GC 6469; Mouse Serum pre-incubation,2 µg/mL
same,MIC,S. aureus GC 6469; Water pre-incubation,4 µg/mL
same,MIC,E. faecalis GC 4555; Mouse Serum pre-incubation,1 µg/mL
same,MIC,E. faecalis GC 4555; Water pre-incubation,4 µg/mL
same,MIC,E. faecalis GC 2265; Mouse Serum pre-incubation,2 µg/mL
same,MIC,E. faecalis GC 2265; Water pre-incubation,4 µg/mL
same,MIC,E. faecalis GC 2267; Mouse Serum pre-incubation,1 µg/mL
same,MIC,E. faecalis GC 2267; Water pre-incubation,4 µg/mL
same,MIC,E. faecium GC 2243; Mouse Serum pre-incubation,0.5 µg/mL
same,MIC,E. faecium GC 2243; Water pre-incubation,2 µg/mL
same,MIC,S. pneumoniae* GC 4465; Mouse Serum pre-incubation,0.12 µg/mL
same,MIC,S. pneumoniae* GC 4465; Water pre-incubation,0.25 µg/mL
same,MIC,S. agalactiae GC 4564; Mouse Serum pre-incubation,0.5 µg/mL
same,MIC,S. agalactiae GC 4564; Water pre-incubation,0.5 µg/mL
same,MIC,E. coli; [1],1 to 2 µg/mL
same,MIC,E. coli; [2],8 to 64 µg/mL
same,MIC,"E. coli; read-out: Range of MIC, E. coli (mouse serum)",1 to 2 µg/mL
same,MIC,"E. coli; read-out: Range of MIC, E. coli (water)",8 to 64 µg/mL
same,MIC,Staph.; [3],0.5 to 2 µg/mL
same,MIC,Staph.; [4],1 to 4 µg/mL
same,MIC,"Staph.; read-out: Range of MIC, Staph. (mouse serum)",0.5 to 2 µg/mL
same,MIC,"Staph.; read-out: Range of MIC, Staph. (water)",1 to 4 µg/mL
